# Numbers after ± are expanded uncertainties.
# Conditions: Liquid; for mass density: 298.15 K, 101.33 kPa, Vibrating tube method; for Normal boiling temperature: Ebulliometric method (Recirculating still)
Compound,mass density [kg/m3],Normal boiling temperature [°C]
CC(=O)OCC(C)C [2-methylpropyl ethanoate],866.2 ± 0.2,116.8 ± 0.2
CC(C)CO [2-methyl-1-propanol],798 ± 0.2,107.83 ± 0.2
C[S+](C)[O-] [dimethyl sulfoxide],1095.5 ± 0.2,190.70 ± 0.2

# — the NIST ThermoML archive (doi:10.1021/acs.jced.7b00241)
